Measurements from ChEMBL document CHEMBL3286147 (J Med Chem, 2014).
Values belong to the compound of their own block, whether it stands above or below them.

What was measured:
Hepatitis C virus [1] = assay: Antiviral activity against Hepatitis C virus genotype 1b infected in human HuH7 cells after 72 hrs by FRET assay; format: functional, cell-based, Hepacivirus hominis; conditions: Huh-7, 72 h
Hepatitis C virus [2] = assay: Antiviral activity against Hepatitis C virus genotype 1a; format: functional, Hepacivirus hominis; conditions: subtype 1a
Hepatitis C virus [3] = assay: Selectivity ratio of EC50 for Hepatitis C virus genotype 1b harboring NS5A Y93H mutation to EC50 for Hepatitis C virus genotype 1b; format: functional, Hepacivirus hominis
[4] = Selectivity ratio of EC50 for Bovine viral diarrhea virus to EC50 for Hepatitis C virus genotype 1b; format: functional
[5] = system: Bovine viral diarrhea virus 1; assay: Antiviral activity against Bovine viral diarrhea virus infected in human HuH7 cells after 72 hrs by luciferase reporter gene assay; format: functional, organism-based; conditions: Bovine viral diarrhea virus isolates and strains, Huh-7, 72 h
[6] = Cytotoxicity against human HuH7 cells by Alamar blue assay; format: cell-based, Huh-7
Hepatitis C virus [7] = assay: Antiviral activity against Hepatitis C virus genotype 1b; format: functional, Hepacivirus hominis
Hepatitis C virus [8] = assay: Antiviral activity against Hepatitis C virus genotype 1 infected in human assessed as log10 IU/ml reduction in mean plasma viral load at 1 mg measured at 24 hrs; format: functional, Hepacivirus hominis
in vivo = conditions: rat, liver, 5 mg/kg
Description: Ratio of drug level in liver to plasma in rat at 5 mg/kg

Hepatitis C virus [9] = assay: Antiviral activity against Hepatitis C virus genotype 1b infected in human assessed as log10 IU/ml reduction in mean plasma viral load at 100 mg measured at 24 hrs; format: functional, Hepacivirus hominis
Hepatitis C virus [10] = assay: microbe, parasite or virus in culture; conditions: genotype 2a JFH-1
Description: Antiviral activity against Hepatitis C virus genotype 2a JFH

Hepatitis C virus [11] = assay: Antiviral activity against Hepatitis C virus genotype 1 infected in human assessed as log10 IU/ml reduction in mean plasma viral load at 10 mg measured at 24 hrs; format: functional, Hepacivirus hominis
Hepatitis C virus [12] = assay: Selectivity ratio of EC50 for Hepatitis C virus genotype 1b harboring NS5A L31V/Q54L mutation to EC50 for Hepatitis C virus genotype 1b; format: functional, Hepacivirus hominis

SMILES: O=C(Nc1ccc(C2S/C(=N\c3cccc(F)c3)N(Cc3ccco3)C2=O)cc1)[C@H]1CCCN1C(=O)OCc1ccccc1 (stereo partly drawn)
EC50 (Hepatitis C virus [1]): 6000 nM

SMILES: C[C@H](NC(=O)CCc1ccccc1)C(=O)Nc1ccc(C2S/C(=N\c3cccc(F)c3)N(Cc3ccco3)C2=O)cc1 (stereo partly drawn)
EC50 (Hepatitis C virus [1]): 1900 nM

SMILES: C[C@H](NC(=O)OCc1ccccc1)C(=O)Nc1ccc(C2S/C(=N\c3cccc(F)c3)N(Cc3ccco3)C2=O)cc1 (stereo partly drawn)
Ratio EC50 (Hepatitis C virus [3]): >5 | Ratio EC50 [4]: > 50 | EC50 [5]: > 50000 nM | CC50 [6]: > 50000 nM | EC50 (Hepatitis C virus [1]): 570 nM

SMILES: O=C(Nc1ccc(C2S/C(=N\c3cccc(F)c3)N(Cc3ccco3)C2=O)cc1)[C@@H]1CCCN1C(=O)CCc1ccccc1 (stereo partly drawn)
EC50 (Hepatitis C virus [1]): 5500 nM

SMILES: O=C1N[C@H]2[C@H](CO[C@H]2CCCCC(=O)N2CCC[C@H]2C(=O)Nc2ccc(/C=C/c3ccc(NC(=O)[C@@H]4CCCN4C(=O)Cc4ccccc4)cc3)cc2)N1
EC50 (Hepatitis C virus [7]): > 10000 nM

SMILES: COC(=O)N[C@H](C(=O)N1CCC[C@H]1c1ncc(-c2ccc(-c3ccc(-c4cnc([C@@H]5CCCN5C(=O)[C@@H](NC(=O)OC)C(C)C)[nH]4)cc3)cc2)[nH]1)C(C)C
Activity (Hepatitis C virus [8]): 1.8 log10IU/ml | Kp (in vivo): 5 | Activity (Hepatitis C virus [9]): 3.6 log10IU/ml | EC50 (Hepatitis C virus [10]): 0.028 nM | Activity (Hepatitis C virus [11]): 3.2 log10IU/ml

SMILES: C[C@H](NC(=O)Cc1ccccc1)C(=O)Nc1ccc(C2S/C(=N\c3cccc(F)c3)N(Cc3ccco3)C2=O)cc1 (stereo partly drawn)
Ratio EC50 (Hepatitis C virus [12]): 354 | Ratio EC50 (Hepatitis C virus [3]): >625 | EC50 (Hepatitis C virus [1]): 5 nM

SMILES: C[C@H](NC(=O)OCc1ccccc1)C(=O)Nc1ccc(C2S/C(=N\c3cccc(F)c3)N(Cc3ccccn3)C2=O)cc1 (stereo partly drawn)
EC50 (Hepatitis C virus [1]): 2 nM

Further lines, results first:

EC50 (Hepatitis C virus [1]): 38 nM
SMILES: C[C@H](NC(=O)OCc1ccccc1)C(=O)Nc1ccc(C2S/C(=N\c3cccc(F)c3)N(Cc3cnccn3)C2=O)cc1 (stereo partly drawn)

EC50 (Hepatitis C virus [2]): > 10000 nM
SMILES: O=C(Nc1ccc(/C=C/c2ccc(NC(=O)[C@@H]3CCCN3C(=O)Cc3ccccc3)cc2)cc1)[C@@H]1CCCN1C(=O)Cc1ccccc1

EC50 (Hepatitis C virus [1]): 15 nM
SMILES: C[C@H](NC(=O)OCc1ccccc1)C(=O)Nc1ccc(C2S/C(=N\c3ccc(N4CCOCC4)c(F)c3)N(Cc3ccco3)C2=O)cc1 (stereo partly drawn)

EC50 (Hepatitis C virus [1]): 600 nM
SMILES: C[C@H](NC(=O)OCc1ccccc1)C(=O)Nc1ccc(C2S/C(=N\c3cccc(F)c3)N(Cc3cc(F)c(F)c(F)c3)C2=O)cc1 (stereo partly drawn)

EC50 (Hepatitis C virus [1]): 2 nM
SMILES: O=C(Nc1ccc(C2S/C(=N\c3cccc(F)c3)N(Cc3ccco3)C2=O)cc1)[C@H]1CCCN1C(=O)Cc1ccccc1 (stereo partly drawn)
